Results published in paper PMC10066365, “Nemacol is a small molecule inhibitor of C. elegans vesicular acetylcholine transporter with anthelmintic potential” (Nature Communications, 2023).
Values joined by “and” are separate entries in the source; they are usually repeats but may differ in a detail not shown here. Equal entries are not always repeated. Where two headings read alike, the source gives them in different places.

What was measured:
[1] = test system: Pristionchus pacificus; assay: Pristionchus pacificus motor disruption dose-response on solid media, 1 h; conditions: for mean % any phene (coiled, jerky-Unc or paralyzed): Pristionchus pacificus young adults, mean of three biological replicates; for EC50: Pristionchus pacificus, 1 h, read-out: P. pacificus motor disruption EC50
Experimental: Locomotor phenotype analyses were done in 24-well plates with 1 mL of MYOB substrate (27.5 g Trizma HCl, 12 g Trizma Base, 230 g bacto tryptone, 10 g NaCl, 0.4 g cholesterol (95%)) seeded with 25 µL of OP50 Escherichia coli on each well. Each compound was added to the MYOB substrate before pouring to achieve the desired final concentrations of 30 µM or 60 µM after diffusion through the media. Synchronized young adult worms are transferred into each well using a platinum wire pick. A Leica MZ75 stereomicroscope was used to visualize the movement of worms on the solid substrate. The specific dominant locomotor phenotype (i.e. ‘Punc’, ‘paralyzed’, ‘coiler’ or ‘wild-type locomotion’) was scored after the touch on the head with a platinum wire over a ~3–5 s of observation. […] Coiled animals were not scored as paralyzed despite sometimes not responding to light touch.

[2] = test system: Dirofilaria immitis microfilariae; assay: Dirofilaria immitis microfilariae immobility assay (DiroImager, 72 h); conditions: for % effect (motility), DIROIM MF: Dirofilaria immitis microfilariae; for EC50: Dirofilaria immitis, 72 h, read-out: Dirofilaria immitis filariae EC50
How it was run: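 About 250 freshly purified microfilariae of the Missouri isolate per well in supplemented RPMI 1640, exposed to compound for 72 h. Motility scored by automated whole-plate optical imaging; medium with 1% DMSO as negative control.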

[3] = molecular target: T1, rat VAChT (Rattus norvegicus, UniProt Q62666); assay: [3H]Vesamicol competitive radioligand binding, PC12 cells expressing ratVAChT; conditions: for specific binding in % of total binding (corrected by nonspecific binding NB), mean: rVAChT-PC12, 21°C, 1% DMSO
T1 construct: expressed in transfected cells; host or cells: rat PC12 (PC12 A123.7) cells, stably transfected; shared by Dr. Ali Roghani (Texas Tech University)
T1 sequence (Q62666 1-530): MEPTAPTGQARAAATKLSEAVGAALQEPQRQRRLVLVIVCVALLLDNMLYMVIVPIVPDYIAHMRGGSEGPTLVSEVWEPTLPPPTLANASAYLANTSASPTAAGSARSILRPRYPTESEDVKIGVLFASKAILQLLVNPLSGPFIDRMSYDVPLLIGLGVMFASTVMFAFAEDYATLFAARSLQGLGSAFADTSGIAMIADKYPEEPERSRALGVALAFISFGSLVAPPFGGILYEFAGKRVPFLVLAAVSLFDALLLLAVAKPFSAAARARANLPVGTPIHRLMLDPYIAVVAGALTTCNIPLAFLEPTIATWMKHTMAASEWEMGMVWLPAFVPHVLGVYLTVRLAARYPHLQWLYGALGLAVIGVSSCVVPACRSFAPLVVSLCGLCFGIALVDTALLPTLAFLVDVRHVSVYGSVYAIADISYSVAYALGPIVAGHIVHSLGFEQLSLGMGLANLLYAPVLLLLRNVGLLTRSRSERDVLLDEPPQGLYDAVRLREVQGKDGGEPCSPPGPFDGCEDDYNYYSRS

[4] = test system: C. elegans; assay: C. elegans motor phenotype scoring on solid media (Punc/jerky-unc, coiled, paralyzed), wild-type young adults; format: in vivo, Caenorhabditis elegans; conditions: for any phene, mean % fraction of young adults exhibiting any phenotype (coiled, jerky-Unc or paralyzed) / atypical locomotion (number of animals) / coiled (number of animals) / no phene (number of animals) / paralyzed (number of animals) / any phene (mean % fraction of young adults exhibiting any phenotype: coiled, jerky-Unc or paralyzed): one hour; for any phene, mean % fraction of young adults exhibiting any phenotype (coiled, jerky-Unc or paralyzed) / any phene (mean % fraction of young adults exhibiting any phenotype: coiled, jerky-Unc or paralyzed): mean of three biological replicates; for atypical locomotion (number of animals) / coiled (number of animals) / no phene (number of animals) / paralyzed (number of animals): young adults, 20 animals per trial, single replicate counts; for EC50: Caenorhabditis elegans, any motor phenotype after 1 h on solid media, ± 95% CI, read-out: C. elegans - motor disruption EC50
[5] = test system: Dirofilaria immitis L3/L4; assay: Dirofilaria immitis L3/L4 motility assay (DiroImager, 72 h); conditions: for % effect (motility), DIROIM L4: Dirofilaria immitis L4
[6] = conc 3.75, observed at one hour
[7] = [3H]Vesamicol displacement, mean, read-out: ratVAChT Ki
[8] = 3.75uM, third c14 line of each analog
[9] = 15uM, second c14 line of each analog

| SMILES | mean % any phene (coiled, jerky-Unc or paralyzed) [1, 6] | mean % any phene (coiled, jerky-Unc or paralyzed) ([1]; conc 15, observed at one hour) | mean % any phene (coiled, jerky-Unc or paralyzed) ([1]; conc 60, observed at one hour) | EC50 [1] | % effect (motility), DIROIM MF ([2]; 0.08 µM) | % effect (motility), DIROIM MF ([2]; 0.4 µM) | % effect (motility), DIROIM MF ([2]; 2 µM) | % effect (motility), DIROIM MF ([2]; 10 µM) | EC50 [2] | Ki [3, 7] | EC50 [4] | % effect (motility), DIROIM L4 ([5]; 2 µM) | % effect (motility), DIROIM L4 ([5]; 10 µM) | % effect (motility), DIROIM L4 ([5]; 50 µM) | % effect (motility), DIROIM MF ([2]; 0.016 µM) | any phene (mean % fraction of young adults exhibiting any phenotype: coiled, jerky-Unc or paralyzed) [4, 8] | any phene (mean % fraction of young adults exhibiting any phenotype: coiled, jerky-Unc or paralyzed) [4, 9] | further results |
| --- | --- | --- | --- | --- | --- | --- | --- | --- | --- | --- | --- | --- | --- | --- | --- | --- | --- | --- |
| CC1CCC(N2CCN(c3ccc([N+](=O)[O-])cc3)CC2)CC1 (centres unmarked) [Nemacol-5] | 0% | 15% | 100% | 16.5 µM | 0% | 0% | 20% | 80% | 4.5 µM | 3.76e-07 M | 7.3 ± 3.8 µM | 10% | 100% | 100% |  |  |  | % effect (motility), DIROIM MF ([2]; 50 µM): 100%; any phene, mean % fraction of young adults exhibiting any phenotype (coiled, jerky-Unc or paralyzed) ([4]; 3.75uM): 3.333%; atypical locomotion (number of animals) ([4]; 3.75uM): 0 and 3 and 1; coiled (number of animals) ([4]; 3.75uM): 0; no phene (number of animals) ([4]; 3.75uM): 20 and 17 and 19; paralyzed (number of animals) ([4]; 3.75uM): 0; any phene, mean % fraction of young adults exhibiting any phenotype (coiled, jerky-Unc or paralyzed) ([4]; 15uM): 97.5%; atypical locomotion (number of animals) ([4]; 15uM): 9 and 12 and 13; coiled (number of animals) ([4]; 15uM): 10 and 6 and 5 and 4; no phene (number of animals) ([4]; 15uM): 0 and 3; paralyzed (number of animals) ([4]; 15uM): 1 and 2 and 0 and 3 and 5; any phene, mean % fraction of young adults exhibiting any phenotype (coiled, jerky-Unc or paralyzed) ([4]; 60uM): 100%; atypical locomotion (number of animals) ([4]; 60uM): 1 and 3 and 0 and 2 and 16 and 15; coiled (number of animals) ([4]; 60uM): 16 and 12 and 14 and 13 and 0; no phene (number of animals) ([4]; 60uM): 0; paralyzed (number of animals) ([4]; 60uM): 3 and 5 and 6 and 4; % effect (motility), DIROIM L4 ([5]; 0.016 µM): 5%; % effect (motility), DIROIM L4 ([5]; 0.08 µM): 0%; % effect (motility), DIROIM L4 ([5]; 0.4 µM): 0%; activity against D. immitis (EC50) ([5]; either D. immitis assay of Fig. 4c): low micromolar activity |
| O=[N+]([O-])c1ccc(N2CCN(C3CCCCCC3)CC2)cc1 [Nemacol-19] |  |  |  |  | 0% | 0% | 0% | 40% | 10.7 µM | 4.62e-07 M | 4.1 ± 1.4 µM | 0% | 0% | 100% | 0% | 43.3333% | 97.5% |  |
| Cc1ccc(N2CCN(C3CCC(C)C3)CC2)cc1 (centres unmarked) [Nemacol-41] | 9.167% | 67.5% | 100% | 10.7 ± 1.2 µM | 0% | 0% | 0% | 0% |  |  | 3.3 ± 1.4 µM | 5% | 5% | 20% | 0% | 58.3333% | 98.3333% | Ki ([3]; [3H]Vesamicol binding, PC12, experiment 1, read-out: expt 1 Ki (M) vs. rat VAChT (PC12)): 4.82e-07 M; Ki ([3]; [3H]Vesamicol binding, PC12, experiment 2, read-out: expt 2 Ki (M) vs. rat VAChT (PC12)): 3.76e-07 M; Ki ([3]; [3H]Vesamicol binding, rat VAChT (PC12), mean of 2-3 experiments, read-out: mean Ki): 4.29e-07 M; any phene (mean % fraction of young adults exhibiting any phenotype: coiled, jerky-Unc or paralyzed) ([4]; 60uM, first c14 line of each analog): 100% |
| O[C@@H]1CCCC[C@H]1N1CCC(c2ccccc2)CC1 [minus Vesamicol] |  |  |  |  |  |  |  |  |  |  |  |  |  |  |  |  |  | specific binding in % of total binding (corrected by nonspecific binding NB), mean ([3]; competitor 1.00E-05 M, experiment 2019-10-30, 2.92E-09 M 3H-vesamicol, 120 min): 0.0405%; specific binding in % of total binding (corrected by nonspecific binding NB), mean ([3]; competitor 1.00E-05 M, experiment 2019-11-21, 2.20E-09 M 3H-vesamicol, 90 min): 1.18e-15%; specific binding in % of total binding (corrected by nonspecific binding NB), mean ([3]; competitor 1.00E-06 M, experiment 2019-10-30, 2.92E-09 M 3H-vesamicol, 120 min): 5%; specific binding in % of total binding (corrected by nonspecific binding NB), mean ([3]; competitor 1.00E-06 M, experiment 2019-11-21, 2.20E-09 M 3H-vesamicol, 90 min): 4%; specific binding in % of total binding (corrected by nonspecific binding NB), mean ([3]; competitor 1.00E-07 M, experiment 2019-10-30, 2.92E-09 M 3H-vesamicol, 120 min): 29%; specific binding in % of total binding (corrected by nonspecific binding NB), mean ([3]; competitor 1.00E-07 M, experiment 2019-11-21, 2.20E-09 M 3H-vesamicol, 90 min): 28%; specific binding in % of total binding (corrected by nonspecific binding NB), mean ([3]; competitor 1.00E-08 M, experiment 2019-10-30, 2.92E-09 M 3H-vesamicol, 120 min): 79%; specific binding in % of total binding (corrected by nonspecific binding NB), mean ([3]; competitor 1.00E-08 M, experiment 2019-11-21, 2.20E-09 M 3H-vesamicol, 90 min): 82%; specific binding in % of total binding (corrected by nonspecific binding NB), mean ([3]; competitor 1.00E-09 M, experiment 2019-10-30, 2.92E-09 M 3H-vesamicol, 120 min): 94%; specific binding in % of total binding (corrected by nonspecific binding NB), mean ([3]; competitor 1.00E-09 M, experiment 2019-11-21, 2.20E-09 M 3H-vesamicol, 90 min): 98%; specific binding in % of total binding (corrected by nonspecific binding NB), mean ([3]; competitor 1.00E-10 M, experiment 2019-10-30, 2.92E-09 M 3H-vesamicol, 120 min): 97%; specific binding in % of total binding (corrected by nonspecific binding NB), mean ([3]; competitor 1.00E-10 M, experiment 2019-11-21, 2.20E-09 M 3H-vesamicol, 90 min): 98%; specific binding in % of total binding (corrected by nonspecific binding NB), mean ([3]; competitor 1.00E-11 M, experiment 2019-10-30, 2.92E-09 M 3H-vesamicol, 120 min): 95%; specific binding in % of total binding (corrected by nonspecific binding NB), mean ([3]; competitor 1.00E-11 M, experiment 2019-11-21, 2.20E-09 M 3H-vesamicol, 90 min): 96% |
